Assay results: US20250326748A1, “COMPOUNDS AND METHODS FOR MODULATING SPLICING” (REMIX THERAPEUTICS INC., priority 2022, published 2025)
Where a name gives a salt, the structure may show the parent alone. Read-outs that look alike come from different tables or passages of the source.

How the values were obtained:
HiBiT-tagged MYB protein = experiment: HiBiT protein abundance assay, MYB (K562 HiBiT knock-in); type: cell-based, human; conditions: HiBiT knock-in cells, 24 hours
Method: (§1) Compounds described herein were used to screen for effects on quantitative protein abundance using a HiBit assay system (Promega). Quantitative protein abundance was determined by measuring the protein levels of HiBit-tagged protein targets expressed in cell culture via luminescence using the Nano-Glo HiBiT Lytic Detection System, which uses a split complementation assay format to reconstitute NanoBiT enzyme to generate a luminescent signal. A protein abundance assay was developed such that endogenous protein targets could be modified with the HiBiT peptide tag and their abundance could be assessed after compound treatment. Briefly, K562 cell lines containing a HiBiT-modification were treated with various compounds described herein (e.g., compounds of Formulas (I), or (II)). After treatment for 24 hours, the protein abundance of a specific target was determined by measuring luminescence.
(§2) • Promega Nano-Glo HiBiT Lytic Detection System (cat #N3030) • Corning 384-well TC-treated microplates (cat #3570)
(§3) Cells were maintained in IMDM with 10% FBS. Before the assay, cells were diluted with […] growth media (IMDM+1% FBS media) and were seeded in a 384-well plate at a density of 10000 cells/well (for each cell line listed in Table 6). Each compound was prepared as a 10-point 3-old serial dilution in DMSO with the top dose at a final concentration of 10 μM in the well. Unmodified K562 cells were added at the previously specified density with DMSO to serve as an assay baseline and positive control (PC) and DMSO only with the respective modified cell lines was added to the negative control (NC) columns. Final DMSO concentration was kept at or below 0.25%. Treated cell plates were placed in an incubator at 37° C. with 5% CO2 for 24 hours. After 24 hours, 25 μL of Complete HiBit Lytic reagent was added to each well at room temperature (e.g. one plate requiring 10 ml Lytic Buffer, 100 μL LgBiT Protein, 200 μL Lytic Substrate), shaken for 5 minutes at 600 RPM, then left to sit for 10 minutes for signal to stabilize before reading on a Spark Cyto plate reader (Tecan) with a 500 ms measurement time.
(§4) To determine compound effects on protein abundance of each target in Table 6, the percent response for each respective cell line was calculated at each compound concentration as follows:
(§5) For the normalized response at each concentration, a four-parameter logistical regression was fit to the data and the response was interpolated at the 50% value to determine a concentration for protein abundance at 50% (IC50) the untreated control.

HiBiT-tagged HTT protein = experiment: HiBiT protein abundance assay, HTT (K562 HiBiT knock-in); type: cell-based, human; conditions: HiBiT knock-in cells, 24 hours
Method: as §1, §2, §3, §4, §5

Target C = experiment: HiBiT protein abundance assay, Target C (K562 HiBiT knock-in); type: cell-based, human; conditions: HiBiT knock-in cells, 24 hours
Method: as §3, §4, §5

K562 cells = experiment: Cell viability, Cell Titer Glo 2.0 assay, K562; conditions: 72 hours
HTT mRNA = experiment: Splicing RT-qPCR assay, HTT canonical (CJ) and alternative (AJ) junction mRNA; type: cell-based, human; conditions: Homo sapiens; for IC50: canonical junction mRNA; for AC50: alternative junction mRNA, read-out: HTT AJ (AC50, increase in AJ mRNA)
Summary of the method: (§6)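 Read-out: one-step RT-qPCR on crude lysates measuring exon-exon junction isoforms, CJ for the canonical transcript and AJ for compound-induced exon inclusion. Normalization used PPIA for adherent A673 and GAPDH or GUSB for K562. Cells received 11 doses, 3-fold apart, top 10 uM, for 24 h.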

MYB mRNA = experiment: Splicing RT-qPCR assay, MYB canonical (CJ) and alternative (AJ) junction mRNA; type: cell-based, human; conditions: Homo sapiens; for IC50: canonical junction mRNA; for AC50: alternative junction mRNA, read-out: MYB AJ (AC50, increase in AJ mRNA)
Summary of the method: as §6

SMN2 mRNA = experiment: Splicing RT-qPCR panel, SMN2 canonical junction (CJ) mRNA; type: cell-based, human; conditions: Homo sapiens, read-out: SMN2 CJ (decrease in CJ mRNA levels, IC50)
Method: Compounds described herein were used to modulate RNA transcript abundance in cells. The expression of a target mRNA was measured by detecting the formation of an exon-exon junction in the canonical transcript (CJ). A compound mediated exon-inclusion event was detected by observing an increase in formation of a new junction with an alternative exon (AJ). Real-time qPCR assays were used to detect these splicing switches and interrogate the potency of various compounds towards different target genes. A high-throughput real time quantitative PCR (RT-qPCR) assay was developed to measure these two isoforms of the mRNA (CJ and AJ) for exemplary genes, such as HTT, SMN2, and MYB, together with a control housekeeping gene, GAPDH or GUSB or PPIA, used for normalization. Briefly, the A673 or K562 cell line was treated with various compounds described herein (e.g., compounds of Formula (D). After treatment, the levels of the HTT, MYB, or SMN2 mRNA targets were determined from each sample of cell lysate by cDNA synthesis followed by qPCR.
The A673 cell line was cultured in DMEM with 10% FBS. Cells were diluted with full growth media and plated in a 96-well plate (15,000 cells in 100 ul media per well). The plate was incubated at 37° C. with 5% CO2 for 24 hours to allow cells to adhere. An 11-point 3-fold serial dilution of the compounds was made in DMSO then diluted in media in an intermediate plate. Compounds were transferred from the intermediate plate to the cell plate with the top dose at a final concentration of 10 uM in the well. Final DMSO concentration was kept at or below 0.25%. The cell plate was returned to the incubator at 37° C. with 5% CO2 for an additional 24 hours.
The K562 cell line was cultured in IMDM with 10% FBS. For K562, cells were diluted with full growth media and plated in either a 96-well plate (50,000 cells in 50 uL media per well) or a 384-well plate (8,000-40,000 cells in 45 uL media per well). An 11-point 3-fold serial dilution of the compounds were made in DMSO then diluted in media in an intermediate plate. Compound was transferred from the intermediate plate to the cell plate with the top dose at a final concentration of 10 uM in the well. Final DMSO concentration was kept at or below 0.25%. Final volume was 100 uL for 96-well plate and 50 uL for 384-well plate. The cell plate was then placed in an incubator at 37° C. with 5% CO2 for 24 hours.
The cells were then gently washed with 50 uL-100 uL cold PBS before proceeding to addition of lysis buffer. 30 uL-50 μL of room temperature lysis buffer with DNAse I (and optionally RNAsin) was added to each well. Cells were shaken/mixed thoroughly at room temperature for 5-10 minutes for lysis to take place and then 3 uL-5 μL of room temperature stop solution was added and wells were shaken/mixed again. After 2-5 minutes, the cell lysate plate was transferred to ice for RT-qPCR reaction setup. The lysates could also be frozen at −80° C. for later use.
In some cases, a direct lysis buffer was used. An appropriate volume of 3× lysis buffer (10 mM Tris, 150 mM NaCl, 1.5%-2.5% Igepal and 0.1-1 U/uL RNAsin, pH 7.4) was directly added to either K562 or A673 cells in media and mixed by pipetting 3 times. The plates were then incubated at room temperature with shaking/rocking for 20-50 minutes to allow for lysis to take place. After this time, the cell lysate plate was transferred to ice to set up for the RT-qPCR reactions. The lysates could also be frozen at −80° C. for later use.
To set up 10 uL RT-qPCR reactions, cell lysates were transferred to 384-well qPCR plates containing the master mix according to the table below. The plates were sealed, gently vortexed, and spun down before the run. The volumes were adjusted accordingly in some instances where the reaction was carried in 20 μL. The table below summarizes the components of the RT-qPCR reactions:
The RT-qPCR reaction was performed using a QuantStudio (ThermoFisher) under the following fast cycling conditions. […]

Target C mRNA = experiment: Splicing RT-qPCR panel, Target C canonical junction (CJ) mRNA; type: cell-based, human; conditions: Homo sapiens, read-out: Target C CJ (decrease in CJ mRNA levels, IC50)
Summary of the method: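 A673 cells (DMEM, 10% FBS) or K562 cells (IMDM, 10% FBS) treated 24 h at 37 °C with an 11-point 3-fold dilution, top 10 uM, DMSO ≤0.25%. Canonical-junction mRNA quantified in lysates by RT-qPCR, normalised to GAPDH, GUSB or PPIA and to DMSO (2^−ΔΔCt), then converted to % response.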

[1] = 24 h, RT-qPCR, A673 or K562 cells, 24 hours treatment, read-out: HTT CJ (IC50, decrease in CJ mRNA)
[2] = qPCR panel, read-out: HTT CJ (decrease in CJ mRNA levels, IC50)
[3] = RT-qPCR, A673 or K562 cells, 24 hours treatment
[4] = qPCR panel, read-out: MYB CJ (decrease in CJ mRNA levels, IC50)
[5] = RT-qPCR, A673 or K562 cells, 24 hours treatment, read-out: MYB CJ (IC50, decrease in CJ mRNA)

Row | SMILES | IC50 (HiBiT-tagged MYB protein) [µM] | IC50 (HiBiT-tagged HTT protein) [µM] | IC50 (Target C) [µM] | Effect on Cell Viability, K562 (K562 cells) | IC50 (HTT mRNA; [1]) [µM] | IC50 (HTT mRNA; [2]) [µM] | AC50 (HTT mRNA; [3]) [µM] | IC50 (MYB mRNA; [4]) [µM] | AC50 (MYB mRNA; [3]) [µM] | IC50 (MYB mRNA; [5]) [µM] | IC50 (SMN2 mRNA) [µM] | IC50 (Target C mRNA) [µM]
1 | Cn1cc2cc(-c3cnc4cc(C5CCNCC5)ccc4n3)c(O)c(F)c2n1 [Compound 167, 7-fluoro-2-methyl-5-[6-(piperidin-4-yl)quinoxalin-2-yl]indazol-6-ol] | < 0.1 | < 0.1 | < 0.1 | A (<100 nM) | – | – | – | – | – | – | – | –
2 | C[C@@H]1CN(c2cnc3nc(-c4cc5cn(C)nc5cc4O)cc(C4CC4)c3c2)C[C@H](C)N1 [Compound 364, 5-{4-cyclopropyl-6-[(3R,5S)-3,5-dimethylpiperazin-1-yl]-1,8-naphthyridin-2-yl}-2-methylindazol-6-ol hydrochloride] | – | – | – | C (1000-9999 nM) | < 0.1 | < 0.1 | 0.1 to 1 | < 0.1 | 0.1 to 1 | < 0.1 | < 0.1 | 0.1 to 1
3 | Cc1c(O)c(-c2ccc3c(Cl)c(N4C[C@H](C)N[C@@H](C)C4)cnc3n2)cc2cn(C)nc12 [Compound 394] | – | – | – | B (100-1000 nM) | 0.1 to 1 | 0.1 to 1 | 0.1 to 1 | < 0.1 | < 0.1 | < 0.1 | < 0.1 | 1 to 10
4 | C[C@H]1CN(c2cnc3nc(-c4cc5cn(C)nc5cc4O)cc(Cl)c3c2)C[C@H](C)N1C [Compound 404, 5-{4-chloro-6-[(3S,5S)-3,4,5-trimethylpiperazin-1-yl]-1,8-naphthyridin-2-yl}-2-methylindazol-6-ol] | – | – | – | B (100-1000 nM) | 1 to 10 | 1 to 10 | 1 to 10 | 0.1 to 1 | 0.1 to 1 | 0.1 to 1 | < 0.1 | 1 to 10
5 | CN(C)C1CCN(c2ccc3nc(-c4cc5cn(C)nc5c(F)c4O)cnc3c2)CC1 [Compound 360, 5-{6-[4-(dimethylamino)piperidin-1-yl]quinoxalin-2-yl}-7-fluoro-2-methylindazol-6-ol] | – | – | – | B (100-1000 nM) | 0.1 to 1 | 0.1 to 1 | > 10 | < 0.1 | 0.1 to 1 | < 0.1 | < 0.1 | 1 to 10
6 | COc1cc(-c2cc3cn(C)nc3c(C)c2O)nc2ncc(N3CCNCC3)cc12 [Compound 152, 5-(4-methoxy-6-(piperazin-1-yl)-1,8-naphthyridin-2-yl)-2,7-dimethyl-2H-indazol-6-ol 2,2,2-trifluoroacetate] | – | – | – | B (100-1000 nM) | 0.1 to 1 | 0.1 to 1 | 1 to 10 | 0.1 to 1 | 0.1 to 1 | 0.1 to 1 | < 0.1 | 1 to 10
7 | CN[C@H]1CCN(c2cnc3nc(-c4cc5cn(C)nc5c(C)c4O)ccc3c2)C1 [Compound 111] | < 0.1 | < 0.1 | < 0.1 | A (<100 nM) | – | – | – | – | – | – | – | –
8 | C[C@H]1CN(c2cnc3nc(-c4cc(F)c5nn(C)cc5c4)cc(Cl)c3c2)CC2(CC2)N1 [Compound 396] | – | – | – | C (1000-9999 nM) | 1 to 10 | 1 to 10 | 1 to 10 | 0.1 to 1 | 0.1 to 1 | 0.1 to 1 | < 0.1 | 1 to 10
9 | COc1nc(-c2cc(Cl)c3cc(N4C[C@H](C)N[C@@H](C)C4)cnc3n2)cn2cc(C)nc12 [Compound 403, 4-chloro-6-[(3S,5S)-3,5-dimethylpiperazin-1-yl]-2-{8-methoxy-2-methylimidazo[1,2-a]pyrazin-6-yl}-1,8-naphthyridine] | – | – | – | C (1000-9999 nM) | > 10 | > 10 | > 10 | 1 to 10 | 0.1 to 1 | 1 to 10 | 0.1 to 1 | > 10
